Results on nine compounds are retold here after patent publication US12180207B2 (ARRAY BIOPHARMA INC., priority 2018, dated 2024).

As usually defined, the IC50 is the concentration at which inhibition is half-maximal.

The target of assay [1] is recombinant human FGFR3 (amino acids R397-T806) (Homo sapiens (Human), UniProt P22607). The experiment in a line: FGFR3 enzyme activity assay (LanthaScreen TR-FRET). The class given is biochemical. As to conditions: 25 μM ATP, 10 min incubation at 22° C., average of multiple determinations if made, read-out: FGFR3 Enz FRET IC50. The method, boiled down:
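GST-HIS6-tagged human FGFR3 (R397-T806) was reacted with 100 nM Alexa Fluor 647-Poly-GT substrate and 25 μM ATP plus compound in HEPES/MgCl2/Triton buffer, pH 7.5, 2% DMSO, for 10 min at 22 °C.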
(In TR-FRET formats the signal depends on donor and acceptor labels being close together.)

Assay [2] has as its target FGFR1 (SEQ ID NO: 1, amino acids 458-765) (Homo sapiens (Human), UniProt P11362). The experiment in a line: LC/MS FGFR1 kobs assay (covalent protein modification). The assay is classed as binding. As to conditions: 500 nM FGFR1, 3 μM compound. An outline of the steps: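 Covalent labeling of FGFR1 kinase domain (aa 458-765) tracked over time by intact-protein LC/MS after formic acid quench. kobs derived by fitting DMSO-normalized percent unmodified FGFR1 to an exponential decay model.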

Assay [3] has as its target dephosphorylated FGFR1 (SEQ ID NO: 1, amino acids 458 to 765) (Homo sapiens (Human), UniProt P11362). The assay can be described thus: FGFR enzyme binding assay (HTRF tracer displacement), FGFR1. As to conditions: 5 nM dephosphorylated FGFR1, average of multiple determinations if made. An outline of the steps: (§1)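 Kinase and tracer were incubated with compound for 60 minutes at 22° C. Tracer displacement was then measured by HTRF, and results were expressed as POC with 1 μM control inhibitor defining full displacement.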

The target of assay [4] is phosphorylated FGFR3 (SEQ ID NO: 5, amino acids 449 to 759) (Homo sapiens (Human), UniProt P22607). The assay can be described thus: FGFR enzyme binding assay (HTRF tracer displacement), FGFR3. As to conditions: 5 nM phosphorylated FGFR3, average of multiple determinations if made. An outline of the steps: as §1
Sequence of phosphorylated FGFR3 (SEQ ID NO: 5, amino acids 449 to 759) (P22607 449-759): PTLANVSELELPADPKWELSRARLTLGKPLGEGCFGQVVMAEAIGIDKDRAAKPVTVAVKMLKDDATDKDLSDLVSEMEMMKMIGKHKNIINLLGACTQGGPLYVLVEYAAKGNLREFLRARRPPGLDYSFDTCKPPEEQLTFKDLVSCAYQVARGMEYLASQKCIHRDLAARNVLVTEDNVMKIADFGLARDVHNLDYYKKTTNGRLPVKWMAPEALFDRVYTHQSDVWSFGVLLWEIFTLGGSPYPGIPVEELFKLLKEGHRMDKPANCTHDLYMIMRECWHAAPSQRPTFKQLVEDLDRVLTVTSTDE
Assay [5] has as its target recombinant human FGFR1 catalytic domain (amino acids 308-731) (Homo sapiens (Human), UniProt P11362). The experiment in a line: FGFR1 enzyme activity assay (LanthaScreen TR-FRET). The class given is biochemical. As to conditions: 20 min incubation at 22° C., average of multiple determinations if made, read-out: FGFR1 Enz FRET IC50. An outline of the steps: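 His-tagged FGFR1 kinase domain with 100 nM Alexa Fluor 647-poly-GT peptide and ATP in pH 7.5 HEPES/MgCl2 buffer with 2% DMSO, 20 min at 22 °C. Quenched with EDTA plus 2 nM Eu-PY20 antibody and read after 60 min. IC50 comes from a 4-parameter fit of percent of control.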

Sequence of dephosphorylated FGFR1 (SEQ ID NO: 1, amino acids 458 to 765) (P11362 458-765): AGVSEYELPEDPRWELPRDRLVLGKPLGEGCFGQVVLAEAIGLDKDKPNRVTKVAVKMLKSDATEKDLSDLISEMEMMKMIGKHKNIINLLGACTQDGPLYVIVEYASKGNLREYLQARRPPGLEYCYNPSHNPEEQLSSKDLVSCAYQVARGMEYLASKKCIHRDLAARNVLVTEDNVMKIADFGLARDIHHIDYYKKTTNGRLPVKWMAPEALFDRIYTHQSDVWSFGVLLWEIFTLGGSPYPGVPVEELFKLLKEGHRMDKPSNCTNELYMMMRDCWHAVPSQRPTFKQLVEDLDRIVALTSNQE
Sequence of FGFR1 (SEQ ID NO: 1, amino acids 458-765) (P11362 458-765): as above
Sequence of recombinant human FGFR3 (amino acids R397-T806) (P22607 397-806): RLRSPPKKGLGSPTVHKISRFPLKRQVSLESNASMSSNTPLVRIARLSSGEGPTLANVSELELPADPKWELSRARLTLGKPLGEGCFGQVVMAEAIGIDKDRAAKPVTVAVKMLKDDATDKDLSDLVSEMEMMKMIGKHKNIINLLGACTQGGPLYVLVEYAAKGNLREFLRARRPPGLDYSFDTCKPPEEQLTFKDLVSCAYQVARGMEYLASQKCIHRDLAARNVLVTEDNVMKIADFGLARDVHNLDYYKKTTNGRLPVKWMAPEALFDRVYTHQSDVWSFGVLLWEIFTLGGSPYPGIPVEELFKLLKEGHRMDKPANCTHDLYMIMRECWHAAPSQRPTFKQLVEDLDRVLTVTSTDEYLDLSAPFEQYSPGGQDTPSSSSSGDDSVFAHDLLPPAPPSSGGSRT
Sequence of recombinant human FGFR1 catalytic domain (amino acids 308-731) (P11362 other isoform, or with tags, fused parts or gaps): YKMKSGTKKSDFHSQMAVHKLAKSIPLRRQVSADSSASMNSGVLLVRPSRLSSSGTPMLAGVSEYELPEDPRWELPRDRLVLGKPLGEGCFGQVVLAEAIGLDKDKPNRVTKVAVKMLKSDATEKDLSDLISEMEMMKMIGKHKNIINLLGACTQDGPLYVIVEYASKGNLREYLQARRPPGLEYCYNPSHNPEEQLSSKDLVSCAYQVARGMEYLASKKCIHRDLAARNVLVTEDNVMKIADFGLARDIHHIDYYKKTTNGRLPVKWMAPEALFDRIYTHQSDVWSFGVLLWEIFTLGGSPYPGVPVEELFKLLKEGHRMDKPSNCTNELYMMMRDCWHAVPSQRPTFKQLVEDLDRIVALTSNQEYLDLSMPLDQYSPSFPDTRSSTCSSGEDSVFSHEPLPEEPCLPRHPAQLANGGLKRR

`C=CC(=O)N1CC(OC)(C(=O)N2CCC(n3ncc(-c4cc(OC)c5c(C#N)cnn5c4)c3C)CC2)C1` [Example 88, 6-(1-(1-(1-acryloyl-3-methoxyazetidine-3-carbonyl)piperidin-4-yl)-5-methyl-1H-pyrazol-4-yl)-4-methoxypyrazolo[1,5-a]pyridine-3-carbonitrile]: the IC50 was 29 nM in assay [1], 202 nM in assay [3], 3 nM in assay [4] and 152 nM in assay [5]. In addition, the “FGFR1 Enz kobs” value in assay [2] came to 0.00646 min⁻¹.
For `C=CC(=O)N1CC(CN2CCC(n3ncc(-c4cc(OC)c5c(C#N)cnn5c4)c3C)CC2)C1` [Example 89, 6-(1-(1-((1-acryloylazetidin-3-yl)methyl)piperidin-4-yl)-5-methyl-1H-pyrazol-4-yl)-4-methoxypyrazolo[1,5-a]pyridine-3-carbonitrile], in that order: 15 nM, 236 nM, 8 nM, 108 nM and 0.00364 min⁻¹.
For `C=CC(=O)N1CC(C)(CN2CCC(n3ncc(-c4cc(OC)c5c(C#N)cnn5c4)c3C)CC2)C1` [Example 90, 6-(1-(1-((1-acryloyl-3-methylazetidin-3-yl)methyl)piperidin-4-yl)-5-methyl-1H-pyrazol-4-yl)-4-methoxypyrazolo[1,5-a]pyridine-3-carbonitrile], in that order: 21 nM, 379 nM, 14 nM, 165 nM and 0.00243 min⁻¹.
In the same order, the values of `C=CC(=O)N1CC(CN2CCC(n3ncc(-c4cc(OC)c5c(C#N)cnn5c4)c3C)CC2)(OC)C1` [Example 91, 6-(1-(1-((1-acryloyl-3-methoxyazetidin-3-yl)methyl)piperidin-4-yl)-5-methyl-1H-pyrazol-4-yl)-4-methoxypyrazolo[1,5-a]pyridine-3-carbonitrile] are 19 nM, 284 nM, 2 nM, 197 nM and 0.00431 min⁻¹.
Take `C=CC(=O)N1CC(CN2CC(n3ncc(-c4cc(OC)c5c(C#N)cnn5c4)c3C)C2)C1` [Example 92]: the IC50 turned out to be 39 nM in assay [1], 444 nM in assay [3], 49 nM in assay [4] and 285 nM in assay [5]. Moreover, in assay [2], the “FGFR1 Enz kobs” value came to 0.00191 min⁻¹.
Take `C=CC(=O)N1CC(C)(CN2CC(n3ncc(-c4cc(OC)c5c(C#N)cnn5c4)c3C)C2)C1` [Example 93, 6-(1-(1-((1-acryloyl-3-methylazetidin-3-yl)methyl)azetidin-3-yl)-5-methyl-1H-pyrazol-4-yl)-4-methoxypyrazolo[1,5-a]pyridine-3-carbonitrile]: the half-maximal inhibitory concentration (IC50) in assay [1] amounted to 41 nM; in assay [3], 482 nM; in assay [4], 40 nM; in assay [5] it was 376 nM. In assay [2], the “FGFR1 Enz kobs” value is 0.0012 min⁻¹.
For `C=CC(=O)N1CC(C(=O)N2CCC(n3cc(-c4cc(OC)c5c(C#N)cnn5c4)c(C)n3)CC2)C1` [Example 94, 6-(1-(1-(1-acryloylazetidine-3-carbonyl)piperidin-4-yl)-3-methyl-1H-pyrazol-4-yl)-4-methoxypyrazolo[1,5-a]pyridine-3-carbonitrile], in that order: 8 nM, 346 nM, 18 nM, 73 nM and 0.00145 min⁻¹.
`C=CS(=O)(=O)N[C@H]1CC[C@H](C(=O)N2CCC(n3cc(-c4cc(OC)c5c(C#N)cnn5c4)cn3)CC2)C1` [Example 190, N-((1S,3S)-3-(4-(4-(3-cyano-4-methoxypyrazolo[1,5-a]pyridin-6-yl)-1H-pyrazol-1-yl)piperidine-1-carbonyl)cyclopentyl)-ethenesulfonamide]: the IC50 was 1 nM in assay [1], 37 nM in assay [3], 3 nM in assay [4] and 9 nM in assay [5]. Moreover, in assay [2], the “FGFR1 Enz kobs” value stood at 0.00423 min⁻¹.
In the same order, the values of `C=CS(=O)(=O)N[C@@H]1CC[C@H](C(=O)N2CCC(n3cc(-c4cc(OC)c5c(C#N)cnn5c4)cn3)CC2)C1` [Example 191, N-((1R,3S)-3-(4-(4-(3-cyano-4-methoxypyrazolo[1,5-a]pyridin-6-yl)-1H-pyrazol-1-yl)piperidine-1-carbonyl)cyclopentyl)-ethenesulfonamide] are 4 nM, 103 nM, 10 nM, 19 nM and 0.00583 min⁻¹.
